{"source": "patent US11000708B2", "about": "(priority 2015, dated 2021)", "key": {"[1]": {"test_system": "clinically-separated Mycobacterium tuberculosis strains", "format": "cell-based"}, "[2]": {"test_system": "518 clinically-separated Mycobacterium tuberculosis strains", "details": "cited from earlier work"}, "[3]": {"details": "518 clinically-separated strains"}, "[4]": {"details": "among 321 strains resistant to one or more first-line drugs"}}, "note": "Values joined by “and” are separate entries in the source; they are usually repeats but may differ in a detail not shown here. Identical values can stand only once. Like-named read-outs stand apart in the source and are kept apart here.", "data": [{"compound": "NNC(=O)c1ccncc1", "note": "[Isoniazid, isoniazid]", "values": [{"measurement": "growth of bacterial colonies on drug-containing culture medium", "setting": "[1]; isoniazid 0.2 μg/ml, Table 4, per clinical strain", "result": "4+ (positive (4+) if the bacterial colonies closely grow on the slant face of the culture medium and account for ¾ or more of the area of the slant face) and 3+ (positive (3+) if the bacterial colonies closely grow on the slant face of the culture medium or are partially fused and account for ½ or more of the slant face and ¾ or less of the slant face)"}, {"measurement": "resistance rate of Mycobacterium tuberculosis", "setting": "[2]; [3]", "result": 53.67, "unit": "%"}]}, {"compound": "CO[C@H]1/C=C/O[C@@]2(C)Oc3c(C)c(O)c4c(O)c(c(/C=N/N5CCN(C)CC5)c(O)c4c3C2=O)NC(=O)/C(C)=C\\C=C\\[C@H](C)[C@H](O)[C@@H](C)[C@@H](O)[C@@H](C)[C@H](OC(C)=O)[C@@H]1C", "note": "[Rifampicin, rifampicin]", "values": [{"measurement": "growth of bacterial colonies on drug-containing culture medium", "setting": "[1]; rifampicin 50 μg/ml, Table 5, per clinical strain", "result": "4+ (positive (4+) if the bacterial colonies closely grow on the slant face of the culture medium and account for ¾ or more of the area of the slant face) and 3+ (positive (3+) if the bacterial colonies closely grow on the slant face of the culture medium or are partially fused and account for ½ or more of the slant face and ¾ or less of the slant face) and 2+ (positive (2+) if the bacterial colonies dispersedly grow on the slant face of the culture medium and account for ¼ or more of the slant face and ½ or less of the slant face)"}, {"measurement": "growth of bacterial colonies on drug-containing culture medium", "setting": "[1]; rifampicin 50 μg/ml, Table 6, isoniazid- and rifampicin-resistant clinical strains", "result": "4+ (positive (4+) if the bacterial colonies closely grow on the slant face of the culture medium and account for ¾ or more of the area of the slant face) and 3+ (positive (3+) if the bacterial colonies closely grow on the slant face of the culture medium or are partially fused and account for ½ or more of the slant face and ¾ or less of the slant face) and 2+ (positive (2+) if the bacterial colonies dispersedly grow on the slant face of the culture medium and account for ¼ or more of the slant face and ½ or less of the slant face)"}]}, {"compound": "NCC[C@H](O)C(=O)N[C@@H]1C[C@H](N)[C@@H](O[C@H]2O[C@H](CN)[C@@H](O)[C@H](O)[C@H]2O)[C@H](O)[C@H]1O[C@H]1O[C@H](CO)[C@@H](O)[C@H](N)[C@H]1O", "note": "[amikacin]", "values": [{"measurement": "resistance rate of Mycobacterium tuberculosis", "setting": "[2]; [3]", "result": 15.83, "unit": "%"}, {"measurement": "resistance rate of Mycobacterium tuberculosis", "setting": "[2]; [4]", "result": 25.55, "unit": "%"}]}, {"compound": "[H]/N=C(/N)N[C@H]1[C@H](O)[C@@H](O)[C@H](O[C@@H]2O[C@@H](C)[C@](O)(C=O)[C@H]2O[C@@H]2O[C@@H](CO)[C@H](O)[C@@H](O)[C@@H]2NC)[C@@H](N/C(N)=N\\[H])[C@@H]1O", "note": "[streptomycin]", "values": [{"measurement": "resistance rate of Mycobacterium tuberculosis", "setting": "[2]; [3]", "result": 45.95, "unit": "%"}]}, {"compound": "capreomycin", "values": [{"measurement": "resistance rate of Mycobacterium tuberculosis", "setting": "[2]; [3]", "result": 21.81, "unit": "%"}, {"measurement": "resistance rate of Mycobacterium tuberculosis", "setting": "[2]; [4]", "result": 33.02, "unit": "%"}]}, {"compound": "carrimycin", "values": [{"measurement": "number of strains sensitive to 1 μg/ml of carrimycin", "setting": "[1]; 1 μg/ml", "result": 54, "unit": "strains"}, {"measurement": "share of total effective bacteria sensitive to 1 μg/ml of carrimycin", "setting": "[1]; 1 μg/ml", "result": 31.39, "unit": "%"}, {"measurement": "number of strains with activity superior to that of isoniazid and that of rifampicin", "setting": "[1]; 20 μg/ml carrimycin vs 1 μg/ml isoniazid and 250 μg/ml rifampicin", "result": 23, "unit": "strains"}, {"measurement": "number of strains with activity superior to that of isoniazid", "setting": "[1]; 20 μg/ml carrimycin, isoniazid-resistant clinical strains", "result": 37, "unit": "strains"}, {"measurement": "number of strains with activity superior to that of rifampicin", "setting": "[1]; 20 μg/ml carrimycin, rifampicin-resistant clinical strains", "result": 39, "unit": "strains"}, {"measurement": "total effective rate", "setting": "[1]; 172 of 240 clinically-separated strains", "result": 71.66, "unit": "%"}, {"measurement": "share of effective strains with activity superior to isoniazid", "setting": "[1]; of 172 effective strains", "result": 21.5, "unit": "%"}, {"measurement": "share of effective strains with activity superior to isoniazid and rifampicin", "setting": "[1]; of 172 effective strains", "result": 13.4, "unit": "%"}, {"measurement": "share of effective strains with activity superior to rifampicin", "setting": "[1]; of 172 effective strains", "result": 22.7, "unit": "%"}, {"measurement": "share of effective strains with sensitivity equivalent to H37Rv", "setting": "[1]; of 172 effective strains", "result": 53.48, "unit": "%"}, {"measurement": "number of strains with sensitivity equivalent to that of quality control strains H37Rv", "setting": "[1]; of 172 sensitive strains", "result": 92, "unit": "strains"}, {"measurement": "number of strains with sensitivity obviously higher than that of quality control strains H37Rv", "setting": "[1]; of 172 sensitive strains", "result": 80, "unit": "strains"}, {"measurement": "number of strains sensitive to carrimycin", "setting": "[1]; of 240 clinically-separated strains, 1 μg/ml or 20 μg/ml", "result": 172, "unit": "strains"}]}]}
